Strand notation (5' to 3'): a small letter for the sugar, then the base; units joined by * are phosphorothioate-linked, units joined directly phosphodiester-linked; [ ] holds rarer units or linkages, { } end groups; capitals alone tell only the bases. e = 2'-O-(2-methoxyethyl) (MOE); [5mC] = 5-methylcytosine; d = 2'-deoxy (DNA)
Tested on: human B7.2 mRNA
Experiment: Human B7.2 mRNA levels in THP-1 cells by quantitative real-time PCR (Example 27)
Format: cell-based
Design: concentration or dose not given beside the values
Source text: In accordance with the present invention, an additional series of antisense compounds were designed to target different regions of the human B7.2 RNA, using published sequences (GenBank accession number U04343.1, incorporated herein as SEQ ID NO: 295, GenBank accession number BC040261.1, incorporated herein as SEQ ID NO: 296 and GenBank accession number NT—005543.12, a portion of which is incorporated herein as SEQ ID NO: 297). “Target site” indicates the first (5′-most) nucleotide number on the particular target sequence to which the compound binds. All compounds in Table 25 are chimeric oligonucleotides (“gapmers”) 20 nucleotides in length, composed of a central “gap” region consisting of ten 2′-deoxynucleotides, which is flanked on both sides (5′ and 3′ directions) by five-nucleotide “wings”. The wings are composed of 2′-methoxyethyl (2′-MOE)nucleotides. The internucleoside (backbone) linkages are phosphorothioate (P═S) throughout the oligonucleotide. All cytidine residues are 5-methylcytidines. The compounds were analyzed for their effect on human B7.2 mRNA levels in THP-1 cells by quantitative real-time PCR as described in other examples herein. Data are averages from three experiments. If present, “N.D.” indicates “no data”.

| Substance | % INHIB (inhibition of human B7.2 mRNA levels) |
| --- | --- |
| 323646 (antisense eT*eT*eG*eA*eT*dA*d[5mC]*dA*dA*dG*d[5mC]*d[5mC]*d[5mC]*dT*dT*eG*eT*e[5mC]*e[5mC]*eT) [compound 323646] | 33% |
| 323644 (antisense e[5mC]*e[5mC]*e[5mC]*eT*eT*dG*dT*d[5mC]*d[5mC]*dT*dT*dG*dA*dT*d[5mC]*eT*eG*eA*eA*eG) [compound 323644] | 71% |
| 323628 (antisense eG*eA*eG*e[5mC]*eA*dG*dG*dA*dA*dG*dG*d[5mC]*d[5mC]*dA*dT*e[5mC]*eA*e[5mC]*eA*eA) [compound 323628] | 44% |
| 323669 (antisense e[5mC]*eG*eT*eA*e[5mC]*dA*dG*dT*dT*d[5mC]*dT*dG*dT*dG*dA*e[5mC]*eA*eT*eT*eA) [compound 323669] | 68% |
| 323680 (antisense eA*eT*eA*eA*eT*dA*dA*d[5mC]*dT*dG*dT*dT*dG*dG*dA*eA*eG*eT*eA*e[5mC]) [compound 323680] | 51% |
| 323650 (antisense eG*eT*eT*e[5mC]*eA*dG*dA*dA*dT*dT*d[5mC]*dA*dT*d[5mC]*dT*eG*eG*eT*eG*eG) [compound 323650] | 92% |
| 323691 (antisense eG*e[5mC]*eT*eT*eT*dA*d[5mC]*dT*d[5mC]*dT*dT*dT*dA*dA*dT*eT*eA*eA*eA*eA) [compound 323691] | 40% |
| 323673 (antisense e[5mC]*eA*eT*e[5mC]*eA*dG*dG*dG*dA*dA*dT*dG*dA*dA*dA*e[5mC]*eA*eG*eA*e[5mC]) [compound 323673] | 38% |
| 323679 (antisense eT*eT*eG*eG*eA*dA*dG*dT*dA*d[5mC]*dA*dG*d[5mC]*dT*dG*eT*eA*eA*eT*e[5mC]) [compound 323679] | 60% |
| 323647 (antisense eA*eT*eA*e[5mC]*eA*dT*dT*dG*dA*dT*dA*d[5mC]*dA*dA*dG*e[5mC]*e[5mC]*e[5mC]*eT*eT) [compound 323647] | 41% |
| 323635 (antisense e[5mC]*eT*eG*e[5mC]*e[5mC]*dA*dA*dA*dA*dT*dA*d[5mC]*dT*dA*d[5mC]*eT*eA*eG*e[5mC]*eT) [compound 323635] | 24% |
| 323653 (antisense eT*eA*eG*e[5mC]*eA*dA*dG*d[5mC]*dA*d[5mC]*dT*dG*dA*d[5mC]*dA*eG*eT*eT*e[5mC]*eA) [compound 323653] | 96% |
| 323633 (antisense e[5mC]*eT*eA*e[5mC]*eT*dA*dG*d[5mC]*dT*d[5mC]*dA*d[5mC]*dT*d[5mC]*dA*eG*eG*e[5mC]*eT*eT) [compound 323633] | 50% |
| 323643 (antisense eA*eT*e[5mC]*eA*eA*dA*dA*d[5mC]*dT*dT*dG*dT*dG*d[5mC]*dG*eG*e[5mC]*e[5mC]*e[5mC]*eA) [compound 323643] | 80% |
| 323661 (antisense eA*eG*eG*eT*eT*d[5mC]*dT*dG*dG*dG*dT*dA*dA*d[5mC]*d[5mC]*eG*eT*eG*eT*eA) [compound 323661] | 68% |
| 323677 (antisense eG*eG*eA*eG*eG*d[5mC]*dT*dG*dA*dG*dG*dG*dT*d[5mC]*d[5mC]*eT*e[5mC]*eA*eA*eG) [compound 323677] | 55% |
| 323690 (antisense eA*eT*e[5mC]*eA*e[5mC]*dT*dT*dT*dT*dG*dT*d[5mC]*dG*d[5mC]*dA*eT*eG*eA*eA*eG) [compound 323690] | 82% |
| 323636 (antisense eT*eT*e[5mC]*eA*eG*dA*dA*d[5mC]*d[5mC]*dA*dA*dG*dT*dT*dT*eT*e[5mC]*e[5mC]*eT*eG) [compound 323636] | 23% |
| 323624 (antisense eG*eT*eT*eA*e[5mC]*dT*d[5mC]*dA*dG*dT*d[5mC]*d[5mC]*d[5mC]*dA*dT*eA*eG*eT*eG*e[5mC]) [compound 323624] | 59% |

Reference: patent US7897582B2, “Oligonucleotide compositions and methods for the modulation of the expression of B7 protein” (Isis Pharmaceuticals, Inc., priority 2003, dated 2011)
